Test results: US20220162215A1, “COMPOSITIONS AND METHODS OF USING THE SAME FOR TREATMENT OF NEURODEGENERATIVE AND MITOCHONDRIAL DISEASE” (MITOKININ, INC., priority 2019, published 2022)
≈ marks a conversion by molar mass, not a printed value. Where two headings read alike, the source gives them in different places.

What was measured:
[1] = Visual inspection of crystallization; format: physicochemical; parameters: key: 1: yes crystals; 0: no crystals; conditions: Tables 5A-5D
Method: (§1) Briefly, the Hela MKYP (Mito-Keima/YFP-Parkin) cells were seeded at 10K cells/well. EP/MTK compounds were added at seeding (cells were still in suspension). The cells were incubated with the EP/MTK compounds for 16 hours, then 1 μM FCCP/oligomycin was added for 6 hours. Prior to harvesting, cells were scored by eye under 20× magnification for the presence or absence of crystalline or aggregated compound, or round cells.

[2] = test system: Hela MKYP (Mito-Keima/YFP-Parkin) cells; conditions: human, 22 h
Method: as §1

HeLa MKYP cells [3] = experiment: Human mitophagy assay (HeLa MKYP, mtKeima FACS, FCCP/oligomycin); format: cell-based
Method: Briefly, HeLa MKYP cells were plated at 10,000 cells/well in 96 well plates along with compounds at various concentrations. Following 16 hrs of incubation, cells were treated with 1 uM FCCP/oligomycin for 6 hours, then analyzed via FACS for the presence of mitochondria in lysosomes (as determined by an emissions spectrum shift from the pH-sensitive mtKeima tag). Examples are shown in FIG. 1 through FIG. 13 below.

HeLa MKYP cells [4] = experiment: Toxicity / cell death measured by DAPI staining (take-up); format: cell-based; conditions: for Toxicity (% positive for DAPI takeup @ 50 μM): Table 3; for Max cell death at 25 uM compound, 1 uM FO / Cell death at 25 μM (no FO): Table 3 Supplement B
Method: H2O2 treatment was performed as a control for cell death as measured by DAPI staining.
Briefly, HeLa MKYP cells were plated at 10,000 cells/well in 96 well plates along with compounds at various concentrations. Following 16 hrs of incubation, cells were treated with 1 uM FCCP/oligomycin for 6 hours, then analyzed via FACS for the presence of mitochondria in lysosomes (as determined by an emissions spectrum shift from the pH-sensitive mtKeima tag).

mitotoxicity = experiment: Mitotox safety margin (therapeutic window); format: cell-based; conditions: for Mitotox safety margin (Therapeutic window): class of the Ratio; for Ratio**: highest concentration with no observable mitotoxicity (μM) divided by the EC50 (μM) of the compound
Solubility in 1× PBS = format: physicochemical
[5] = Homo sapiens, HeLa, Table 3, read-out: Potency at 1 μM F/O toxin* (EC50 of mitophagy activation)
[6] = Homo sapiens, HeLa, Table 3 Supplement B, read-out: Mitophagy EC50 (HeLa mKeima assay)
[7] = Table 3, read-out: Potency at 1 μM F/O toxin* (EC50 of mitophagy activation)

SMILES	EC50 (HeLa MKYP cells [3]; [5])	EC50 (HeLa MKYP cells [3]; [6])	Toxicity (% positive for DAPI takeup @ 50 μM) (HeLa MKYP cells [4]; 50 μM)	Max cell death at 25 uM compound, 1 uM FO (HeLa MKYP cells [4])	Cell death at 25 μM (no FO) (HeLa MKYP cells [4])	Mitotox safety margin (Therapeutic window) (mitotoxicity)	Ratio** (mitotoxicity)	solubility (Solubility in 1× PBS)	further results
c1ccc(CNc2ncnc3nc[nH]c23)cc1 [Compound 6BAP, 6-benzylaminopurine, reference compound]									Visual inspection of crystallization ([1]; 1.6 μM): 0; Visual inspection of crystallization ([1]; 3.1 μM): 0; Visual inspection of crystallization ([1]; 6.3 μM): 0; Visual inspection of crystallization ([1]; 12.5 μM): 0; Visual inspection of crystallization ([1]; 25.0 μM): 0; Visual inspection of crystallization ([1]; 50.0 μM): 0; Inspection of round cells ([2]; 1.6 μM): 0; Inspection of round cells ([2]; 3.1 μM): 0; Inspection of round cells ([2]; 6.3 μM): 0; Inspection of round cells ([2]; 12.5 μM): 0; Inspection of round cells ([2]; 25 μM): 0; Inspection of round cells ([2]; 50 μM): 0
FC(F)(F)c1cc2c(N[C@@H]3CCOc4ccccc43)ncnc2[nH]1 [Compound 37]	6.3 µM	6.25 µM	21.1%	21%	3.04%	+ (ratio <10)	8.85	150 µM (≈ 50.1 µg/mL)	EC50 (HeLa MKYP cells [3]; Homo sapiens, HeLa, Table 3 Supplement A, as measured in Table 3, read-out: Potency (EC50 Max Mitophagy) (μM)*): 6.28 µM; Toxicity (% positive for DAPI take-up at 50 μM)* (HeLa MKYP cells [4]; Table 3 Supplement A, 50 μM): 21.05%
CN1CC[C@H](Nc2ncnc3[nH]c(C(F)(F)F)cc23)c2ccccc21 [Compound 81]		1.33 µM	59.0%	16%	2.51%	++++ (ratio 30<)	30	74.8 µM (≈ 26 µg/mL)	EC50 (HeLa MKYP cells [3]; [7]): 1.7 µM
C[C@H]1CCc2ccccc2[C@@H]1Nc1ncnc2[nH]c(C(F)(F)F)cc12 [Compound 82]	1 µM	1.02 µM	28.3%					1 µM (≈ 0.346 µg/mL)	Max cell death at 25 uM compound, 1 uM FO (HeLa MKYP cells [4]; listed as EP-0037059): 26%; Cell death at 25 μM (no FO) (HeLa MKYP cells [4]; listed as EP-0037059): 4.9%; Mitotox safety margin (Therapeutic window) (mitotoxicity; listed as EP-0037059): + (ratio <10); Ratio** (mitotoxicity; listed as EP-0037059): 8.69
C[C@H]1CCc2ccccc2[C@H]1Nc1ncnc2[nH]c(C(F)(F)F)cc12 [Compound 85]		1.08 µM	31.4%			+ (ratio <10)	7.74		EC50 (HeLa MKYP cells [3]; [7]): 1.1 µM; Max cell death at 25 uM compound, 1 uM FO (HeLa MKYP cells [4]; listed as EP-0037094): 31.4%; Cell death at 25 μM (no FO) (HeLa MKYP cells [4]; listed as EP-0037094): 7.13%
O[C@@H]1Cc2ccccc2[C@H]1Nc1ncnc2[nH]c(C(F)(F)F)cc12 [Compound 88]		15.1 µM	7.6%	7.59%	2.35%	+ (ratio <10)	1.66	19.2 µM (≈ 6.42 µg/mL)	
O[C@H]1Cc2ccccc2[C@@H]1Nc1ncnc2[nH]c(C(F)(F)F)cc12 [Compound 90]		18.5 µM	14.4%	14.4%	2.51%	+ (ratio <10)	1.35	20.1 µM (≈ 6.72 µg/mL)	
N#Cc1cccc2c1CCCC2Nc1ncnc2[nH]c(C(F)(F)F)cc12 (stereo not drawn) [Compound 92]	3 µM	2.98 µM	71.2%	71.2%	57.1%	+ (ratio <10)	8.39	1 µM (≈ 0.357 µg/mL)	
OC[C@@H]1CCc2ccccc2[C@H]1Nc1ncnc2[nH]c(C(F)(F)F)cc12 [Compound 94]	1.1 µM	1.15 µM	59.5%	59.535%	27%	+ (ratio <10)	7.25	12.9 µM (≈ 4.67 µg/mL)	
CC[C@@H]1CCc2ccccc2[C@@H]1Nc1ncnc2[nH]c(C(F)(F)F)cc12 [Compound 100]	1.8 µM	1.81 µM	8.7%	8.735%	5.04%	++ (ratio 10< × <20)	13.8	9.39 µM (≈ 3.38 µg/mL)	
C[C@H]1CCc2ccccc2[C@@H]1Nc1ncnc2[nH]c(C(F)(F)F)cc12 [Compound 102]			13.3%					1 µM (≈ 0.346 µg/mL)	EC50 (HeLa MKYP cells [3]; [7]): 0.6 µM; EC50 (HeLa MKYP cells [3]; Table 3 Supplement B, listed as EP-0037882, read-out: Mitophagy EC50 (HeLa mKeima assay)): 0.59 µM; Max cell death at 25 uM compound, 1 uM FO (HeLa MKYP cells [4]; listed as EP-0037882): 13.32%; Cell death at 25 μM (no FO) (HeLa MKYP cells [4]; listed as EP-0037882): 3.79%; Mitotox safety margin (Therapeutic window) (mitotoxicity; listed as EP-0037882): ++++ (ratio 30<); Ratio** (mitotoxicity; listed as EP-0037882): 42.16
c1ccc2c(c1)CCC[C@H]2Nc1ncnc2[nH]c(C3CC3)cc12 [Compound 107]	0.48 µM	0.47 µM	16.6%	14.9%	9.32%	++++ (ratio 30<)	53.2	1 µM (≈ 0.304 µg/mL)	
CN(C)[C@H]1CCc2ccccc2[C@@H]1Nc1ncnc2[nH]c(C(F)(F)F)cc12 [Compound 108]	> 50 µM	0.81 µM	79.3%	79.29%	4.33%			190 µM (≈ 71.3 µg/mL)	
Fc1ccc2c(c1)CCCC2Nc1ncnc2[nH]c(C(F)(F)F)cc12 (stereo not drawn) [Compound 109]	> 50 µM	1.06 µM	30.1%	30.1%	3.27%			1 µM (≈ 0.35 µg/mL)	
Oc1ccc2c(c1)CCC[C@H]2Nc1ncnc2[nH]c(C(F)(F)F)cc12 [Compound 110]	4.4 µM	4.38 µM	11.0%	11%	3.32%			102 µM (≈ 35.5 µg/mL)	
